Experimental data published in patent publication US20250388575A1, “HETEROBIFUNCTIONAL COMPOUNDS AND METHODS OF TREATING DISEASE” (Halda Therapeutics OpCo, Inc., priority 2022, published 2025).
Read-outs that look alike come from different tables or passages of the source.

Columns and labels:
[1] = tested on: T-Rex 293 cell line SC3 cells having increased expression of androgen receptor protein; test: Cellular growth inhibition, T-Rex 293 SC3 cells with increased androgen receptor expression (doxycycline), CellTiter-Glo; type: cell-based; conditions: T-Rex 293 SC3 cells with increased androgen receptor expression (exposed to 10 ng/mL doxycycline), 72 hours, CellTiter-Glo; read-out: GI50
In short: (§1)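 SC3, a T-Rex 293 clone with doxycycline-inducible wild-type androgen receptor, was seeded in phenol red-free DMEM with 10% charcoal-dextran FBS, with or without 10 ng/mL doxycycline. Compound added at 24 h (0.5% DMSO) for 72 h at 37° C. CellTiter-Glo 2.0 luminescence; GI50 from four-parameter fit.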

VCaP cells = test: Cellular growth inhibition assay for VCaP cells, CellTiter-Glo; type: cell-based, human; conditions: VCaP cells, 72 hours, CellTiter-Glo, read-out: GI50
In short: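 GI50 values come from four-parameter curve fits of luminescence data normalized to a zero baseline. Compound, in medium with 0.5% DMSO, was added one day after plating and left for 72 h before CellTiter-Glo 2.0 addition.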

[2] = tested on: T-Rex 293 cell line SC3 cells lacking increased expression of androgen receptor protein; test: Cellular growth inhibition, T-Rex 293 SC3 cells lacking increased androgen receptor expression (no doxycycline), CellTiter-Glo; type: cell-based; conditions: T-Rex 293 SC3 cells lacking increased androgen receptor expression (not exposed to doxycycline), 72 hours, CellTiter-Glo; read-out: GI50
In short: as §1

BRD4-BD1 = BRD4-BD1 (Homo sapiens (Human), UniProt O60885); test: bromoKdELECT assay for binding affinity to BRD4-BD1; conditions: 11-point 3-fold dilution
Protocol: (§2) Compounds were tested using a bromoKdELECT assay. T7 phage strains displaying bromodomains were grown in parallel in 24-well blocks in an E. coli host derived from the BL21 strain. E. coli were grown to log-phase and infected with T7 phage from a frozen stock (multiplicity of infection=0.4) and incubated with shaking at 32° C. until lysis (90-150 minutes). The lysates were centrifuged (5,000×g) and filtered (0.2 μm) to remove cell debris. Streptavidin-coated magnetic beads were treated with biotinylated small molecule or acetylated peptide ligands for 30 minutes at room temperature to generate affinity resins for bromodomain assays. The liganded beads were blocked with excess biotin and washed with blocking buffer (SeaBlock (Pierce), 1% BSA, 0.05% Tween 20, 1 mM DTT) to remove unbound ligand and to reduce nonspecific phage binding. Binding reactions were assembled by combining bromodomains, liganded affinity beads, and test compounds in 1× binding buffer (17% SeaBlock, 0.33×PBS, 0.04% Tween 20, 0.02% BSA, 0.004% Sodium azide, 7.4 mM DTT). Test compounds were prepared as 1000× stocks in 100% DMSO. Kds were determined using an 11-point 3-fold compound dilution series with one DMSO control point. All compounds for Kd measurements are distributed by acoustic transfer (non-contact dispensing) in 100% DMSO. The compounds were then diluted directly into the assays such that the final concentration of DMSO was 0.09%. All reactions performed in polypropylene 384-well plates. Each was a final volume of 0.02 ml. The assay plates were incubated at room temperature with shaking for 1 hour and the affinity beads were washed with wash buffer (1×PBS, 0.05% Tween 20). The beads were then resuspended in elution buffer (1×PBS, 0.05% Tween 20, 2 μM non-biotinylated affinity ligand) and incubated at room temperature with shaking for 30 minutes. The bromodomain concentration in the eluates was measured by qPCR.

BRD4-BD2 = BRD4-BD2 (Homo sapiens (Human), UniProt O60885); test: bromoKdELECT assay for binding affinity to BRD4-BD2; conditions: 11-point 3-fold dilution
Protocol: as §2

T47D cells = test: Cellular growth inhibition assay for T47D cells, CellTiter-Glo; type: cell-based, human; conditions: 72 hours treatment, CellTiter-Glo 2.0
In short: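 Luminescence from CellTiter-Glo 2.0 after 72 h of compound exposure gives the viability signal. Cells grew in insulin-supplemented (0.2 units/mL) DMEM with 10% FBS and were treated one day after seeding at 0.5% DMSO. GI50 values come from four-parameter nonlinear regression.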

Row | Structure (SMILES) | GI50 [1] [nM] | GI50 (VCaP cells; Homo sapiens) [nM] | GI50 [2] [nM] | Kd (BRD4-BD1) [nM] | Kd (BRD4-BD2) [nM] | GI50 (VCaP cells) [nM] | GI50 (T47D cells) [nM] | GI50 (T47D cells; Homo sapiens) [nM]
1 | CCS(=O)(=O)Nc1ccc(Oc2cccc(OCCOCCOCCOCCOCCOC3CCN(c4ccc(C(=O)N[C@H]5CC[C@H](Oc6ccc(C#N)c(Cl)c6)CC5)nn4)CC3)c2)c(-c2cn(C)c(=O)c3[nH]ccc23)c1 [I-3, N-[4-(3-chloro-4-cyano-phenoxy)cyclohexyl]-6-[4-[2-[2-[2-[2-[2-[3-[4-(ethylsulfonylamino)-2-(6-methyl-7-oxo-1H-pyrrolo[2,3-c]pyridin-4-yl)phenoxy]phenoxy]ethoxy]ethoxy]ethoxy]ethoxy]ethoxy]-1-piperidyl]pyridazine-3-carboxamide] | < 500 | < 500 | > 3000 | < 50 | < 50 | – | – | –
2 | CCS(=O)(=O)c1ccc(Oc2cccc(OCCCC3CCN(c4ccc(C(=O)N[C@H]5CC[C@H](Oc6ccc(C#N)c(Cl)c6)CC5)nn4)CC3)c2F)c(-c2cn(C)c(=O)c3[nH]ccc23)c1 [I-15] | < 500 | < 500 | < 500 | 500 to 2500 | 500 to 2500 | – | – | –
3 | CCS(=O)(=O)Cc1ccc(Oc2cccc(OCCCC3CCN(c4ccc(C(=O)N[C@H]5CC[C@H](Oc6ccc(C#N)c(Cl)c6)CC5)nn4)CC3)c2F)c(-c2cn(C)c(=O)c3[nH]ccc23)c1 [I-20] | < 500 | < 500 | < 500 | 500 to 2500 | 500 to 2500 | – | – | –
4 | CCS(=O)(=O)Cc1ccc(Oc2cccc(CCCOC3CCN(c4ccc(C(=O)N[C@H]5CC[C@H](Oc6ccc(C#N)c(Cl)c6)CC5)nn4)CC3)c2F)c(-c2cn(C)c(=O)c3[nH]ccc23)c1 [I-29] | < 500 | < 500 | < 500 | 50 to 500 | 50 to 500 | – | – | –
5 | CCS(=O)(=O)Nc1ccc(Oc2ccc(CCOC3CCN(c4ccc(C(=O)N[C@H]5CC[C@H](Oc6ccc(C#N)c(Cl)c6)CC5)nn4)CC3)cc2)c(-c2cn(C)c(=O)c3[nH]ccc23)c1 [I-35] | < 500 | < 500 | < 500 | < 50 | < 50 | – | – | –
6 | CCS(=O)(=O)Nc1ccc(Oc2ccc(CCC3CCN(c4ccc(C(=O)N[C@H]5CC[C@H](Oc6ccc(C#N)c(Cl)c6)CC5)nn4)CC3)cc2)c(-c2cn(C)c(=O)c3[nH]ccc23)c1 [I-38] | < 500 | – | < 500 | 500 to 2500 | 500 to 2500 | < 500 | < 500 | –
7 | CCS(=O)(=O)c1ccc(Oc2cccc(OCCC3CCN(c4ccc(C(=O)N[C@H]5CC[C@H](Oc6ccc(C#N)c(Cl)c6)CC5)nn4)CC3)c2F)c(-c2cn(C)c(=O)c3[nH]ccc23)c1 [I-42] | < 500 | – | < 500 | 500 to 2500 | 500 to 2500 | < 500 | < 500 | –
8 | CCS(=O)(=O)c1ccc(Oc2ccc(CCC3CCN(c4ccc(C(=O)N[C@H]5CC[C@H](Oc6ccc(C#N)c(Cl)c6)CC5)nn4)CC3)cc2)c(-c2cn(C)c(=O)c3[nH]ccc23)c1 [I-50] | < 500 | – | < 500 | 50 to 500 | 50 to 500 | < 500 | < 500 | –
9 | CCS(=O)(=O)c1ccc(Oc2ccc(COC3CCN(c4ccc(C(=O)N[C@H]5CC[C@H](Oc6ccc(C#N)c(Cl)c6)CC5)nn4)CC3)c(F)c2F)c(-c2cn(C)c(=O)c3[nH]ccc23)c1 [I-53] | < 500 | – | < 500 | > 2500 | > 2500 | < 500 | < 500 | –
10 | CCS(=O)(=O)c1ccc(Oc2ccc(CCC3CCN(c4ccc(C(=O)N[C@H]5CC[C@H](Oc6ccc(C#N)c(Cl)c6)CC5)nn4)CC3)c(F)c2)c(-c2cn(C)c(=O)c3[nH]ccc23)c1 [I-54] | < 500 | – | < 500 | > 2500 | > 2500 | < 500 | < 500 | –
11 | CCS(=O)(=O)c1ccc(Oc2cccc(CCN3CCN(c4ccc(C(=O)N[C@H]5CC[C@H](Oc6ccc(C#N)c(Cl)c6)CC5)nn4)CC3)c2F)c(-c2cn(C)c(=O)c3[nH]ccc23)c1 [I-55] | < 500 | < 500 | < 500 | < 50 | < 50 | – | – | < 500
12 | CCS(=O)(=O)c1ccc(Oc2ccc(CN3CC4(C3)CN(c3ccc(C(=O)N[C@H]5CC[C@H](Oc6ccc(C#N)c(Cl)c6)CC5)nn3)C4)cc2)c(-c2cn(C)c(=O)c3[nH]ccc23)c1 [I-56] | < 500 | < 500 | < 500 | < 50 | < 50 | – | – | < 500
13 | CCS(=O)(=O)c1ccc(Oc2ccc(CN3CC4(CCN(c5ccc(C(=O)N[C@H]6CC[C@H](Oc7ccc(C#N)c(Cl)c7)CC6)nn5)CC4)C3)cc2)c(-c2cn(C)c(=O)c3[nH]ccc23)c1 [I-57] | < 500 | < 500 | < 500 | < 50 | < 50 | – | – | < 500
14 | CCS(=O)(=O)c1ccc(Oc2ccc(N3CC4(CCN(c5ccc(C(=O)NC6CCC(Oc7ccc(C#N)c(Cl)c7)CC6)nn5)CC4)C3)cc2)c(-c2cn(C)c(=O)c3[nH]ccc23)c1 (stereo not drawn) [I-90, N-[4-(3-chloro-4-cyano-phenoxy)cyclohexyl]-6-[2-[4-[4-ethylsulfonyl-2-(6-methyl-7-oxo-1H-pyrrolo[2,3-c]pyridin-4-yl)phenoxy]phenyl]-2,7-diazaspiro[3.5]nonan-7-yl]pyridazine-3-carboxamide] | < 500 | < 500 | < 500 | 50 to 500 | 50 to 500 | – | – | < 500
15 | Cn1cc(-c2cc(C(C)(C)O)ccc2Oc2cc(F)c(CCOC3CCN(c4ccc(C(=O)N[C@H]5CC[C@H](Oc6ccc(C#N)c(Cl)c6)CC5)nn4)CC3)c(F)c2)c2cc[nH]c2c1=O [I-110] | < 500 | < 500 | 500 to 1500 | > 2500 | > 2500 | – | – | 1500 to 3000
16 | Cn1cc(-c2cc(C(C)(C)O)ccc2Oc2ccc(CCC3CCN(c4ccc(C(=O)N[C@H]5CC[C@H](Oc6ccc(C#N)c(Cl)c6)CC5)nn4)CC3)cc2F)c2cc[nH]c2c1=O [I-111] | < 500 | – | > 3000 | > 2500 | > 2500 | < 500 | < 500 | –
17 | CCS(=O)(=O)Cc1ccc(Oc2ccc(CCC3CCN(c4ccc(C(=O)NC5CCC(Oc6ccc(C#N)c(Cl)c6)CC5)nn4)CC3)cc2)c(-c2cn(C)c(=O)c3[nH]ccc23)c1 (stereo not drawn) [I-154, N-[4-(3-chloro-4-cyano-phenoxy)cyclohexyl]-6-[4-[2-[4-[4-(ethylsulfonylmethyl)-2-(6-methyl-7-oxo-1H-pyrrolo[2,3-c]pyridin-4-yl)phenoxy]phenyl]ethyl]-1-piperidyl]pyridazine-3-carboxamide] | < 500 | – | < 500 | 500 to 2500 | 500 to 2500 | < 500 | – | –
18 | Cn1cc(-c2cc(NC(=O)CCC3CCN(c4ccc(C(=O)N[C@H]5CC[C@H](Oc6ccc(C#N)c(Cl)c6)CC5)nn4)CC3)ccc2Oc2ccc(F)cc2F)c2cc[nH]c2c1=O [I-213] | < 500 | – | 500 to 1500 | 500 to 2500 | 500 to 2500 | 1500 to 3000 | – | –
19 | Cn1cc(-c2cc(C(C)(C)O)ccc2Oc2ccc(C3CN(C4CCN(c5ccc(C(=O)N[C@H]6CC[C@H](Oc7ccc(C#N)c(Cl)c7)CC6)nn5)CC4)C3)cc2)c2cc[nH]c2c1=O [I-254] | < 500 | < 500 | 500 to 1500 | – | – | – | – | 1500 to 3000
